Measured values from US9695155B2, “Herbicidal substituted pyrimidinyloxy benzene compounds” (E. I. DU PONT DE NEMOURS AND COMPANY, priority 2013, dated 2017).

Legend:
[1] = test system: johnsongrass; assay: Test F preemergence; assay type: in vivo, Sorghum halepense; details: 21 days, scale 0 to 100
Description: (§1) Seeds of plant species selected from bermudagrass (Cynodon dactylon), surinam grass (Brachiaria decumbens), large (Lg) crabgrass (Digitaria sanguinalis), crabgrass, naked (naked crabgrass, Digitaria nuda), foxtail, green (green foxtail, Setaria viridis), johnsongrass (Sorghum halepense), kochia (Kochia scoparia), morningglory (pitted morningglory, Ipomoea lacunosa), nutsedge, purple (purple nutsedge, Cyperus rotundus), ragweed (common ragweed, Ambrosia elatior), mustard, black (black mustard, Brassica nigra), guineagrass (Panicum maximum), dallisgrass (Paspalum dilatatum), barnyardgrass (Echinochloa crus-galli), sandbur (southern sandbur, Cenchrus echinatus), sowthistle (common sowthistle, Sonchus oleraceous), Italian ryegrass (Lolium multiflorum), signalgrass (broadleaf signalgrass, Brachiaria platyphylla), dayflower (Virginia (VA) dayflower, Commelina virginica), bluegrass (annual bluegrass, Poa annua), quackgrass (Elytrigia repens), mallow (common mallow, Malva sylvestris), buckwheat, wild (wild buckwheat, Polygonum convolvulus), leafy spurge (Euphorbia esula), chickweed (common chickweed, Stellaria media), wild poinsettia (Euphorbia heterophylla), and pigweed (Amaranthus retroflexus) were planted into a blend of loam soil and sand and treated preemergence with test chemicals formulated in a non-phytotoxic solvent mixture which included a surfactant.
(§2) Treated plants and controls were maintained in a greenhouse for 21 days, after which time all species were compared to controls and visually evaluated. Plant response ratings, summarized in Table F, are based on a scale of 0 to 100 where 0 is no effect and 100 is complete control. A dash (-) response means no test result.

[2] = test system: mustard, black; assay: Test F preemergence; assay type: in vivo, Brassica nigra; details: 21 days, scale 0 to 100
Description: as §1, §2

[3] = test system: blackgrass; assay: Test D preemergence; assay type: in vivo, Alopecurus myosuroides
Procedure, shortened: (§3)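 In a controlled growth environment, treated and control plants were held 7 to 21 days, then compared visually. Damage was scored 0–100, where 100 means complete control. Sprays contained surfactant in a non-phytotoxic solvent; post-applied plants were at the 1- to 4-leaf stage.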

[4] = test system: galium; assay: Test D postemergence; assay type: in vivo, Galium aparine
Description: (§4) Seeds of plant species selected from bluegrass (annual bluegrass, Poa annua), blackgrass (Alopecurus myosuroides), canarygrass (littleseed canarygrass, Phalaris minor), chickweed (common chickweed, Stellaria media), galium (catchweed bedstraw, Galium aparine), bromegrass, downy (downy bromegrass, Bromus tectorum), field poppy (Papaver rhoeas), field violet (Viola arvensis), green foxtail (Setaria viridis), deadnettle (henbit deadnettle, Lamium amplexicaule), Italian ryegrass (Lolium multiflorum), kochia (Kochia scoparia), lambsquarters (Chenopodium album), oilseed rape (Brassica napus), pigweed (Amaranthus retroflexus), chamomile (scentless chamomile, Matricaria inodora), Russian thistle (Salsola kali), speedwell (bird's-eye speedwell, Veronica persica), spring barley (Hordeum vulgare), spring wheat (Triticum aestivum), wild buckwheat (Polygonum convolvulus), wild mustard (Sinapis arvensis), wild oat (Avena fatua), wild radish (Raphanus raphanistrum), windgrass (Apera spica-venti), winter barley (Hordeum vulgare), and winter wheat (Triticum aestivum) were planted into a silt loam soil and treated preemergence with test chemicals formulated in a non-phytotoxic solvent mixture which included a surfactant.
(§5) At the same time, these species were planted in pots containing Redi-Earth® planting medium (Scotts Company, 14111 Scottslawn Road, Marysville, Ohio 43041) comprising spaghnum peat moss, vermiculite, wetting agent and starter nutrients and treated with postemergence applications of the test chemicals formulated in the same manner. Plants ranged in height from 2 to 18 cm (1- to 4-leaf stage). Treated plants and controls were maintained in a controlled growth environment for 7 to 21 days after which time all species were compared to controls and visually evaluated. Plant response ratings, summarized in Table D, are based on a scale of 0 to 100 where 0 is no effect and 100 is complete control. A dash (-) response means no test result.

[5] = test system: canarygrass; assay: Test D postemergence; assay type: in vivo, Phalaris minor
Procedure, shortened: as §3

[6] = test system: chamomile; assay: Test D preemergence; assay type: in vivo, Matricaria inodora
Description: as §4, §5

[7] = test system: bromegrass, downy; assay: Test D preemergence; assay type: in vivo, Bromus tectorum
Procedure, shortened: as §3

[8] = test system: wild buckwheat; assay: Test D postemergence; assay type: in vivo, Polygonum convolvulus
Procedure, shortened: as §3

[9] = 16 g ai/ha, scale 0 (no effect) to 100 (complete control)
[10] = 31 g ai/ha, scale 0 to 100 (0 no effect, 100 complete control)
[11] = 62 g ai/ha, scale 0 to 100 (0 no effect, 100 complete control)
[12] = 125 g ai/ha, scale 0 to 100 (0 no effect, 100 complete control)

SMILES: N#Cc1cccc(Oc2ncc(Cl)cn2)c1-n1cc(OC(F)F)cn1 [Compound 97]
- Plant response rating, Johnsongrass ([1]; 16 g ai/ha): 0
- Plant response rating, Johnsongrass ([1]; 31 g ai/ha): 65
- Plant response rating, Johnsongrass ([1]; 62 g ai/ha): 95
- Plant response rating, Johnsongrass ([1]; 125 g ai/ha): 100
- Plant response rating, Johnsongrass ([1]; 250 g ai/ha): 100
- Plant response rating, Mustard, Black ([2]; 16 g ai/ha): 90
- Plant response rating, Mustard, Black ([2]; 31 g ai/ha): 100
- Plant response rating, Mustard, Black ([2]; 62 g ai/ha): 100
- Plant response rating, Mustard, Black ([2]; 125 g ai/ha): 100
- Plant response rating, Mustard, Black ([2]; 250 g ai/ha): 100

SMILES: N#Cc1cccc(Oc2ncc(Cl)cn2)c1-n1cc(OCC(F)(F)F)cn1 [Compound 274, 3-[(5-chloro-2-pyrimidinyl)oxy]-2-[4-(2,2,2-trifluoroethoxy)-1H-pyrazol-1-yl]benzonitrile]
- pest or weed control at 16 g/ha ([3]; Alopecurus myosuroides, pre-emergence, 16 g ai/ha, scale 0 (no effect) to 100 (complete control), read-out: Plant response rating, Blackgrass): 10%
- pest or weed control at 31 g/ha ([3]; Alopecurus myosuroides, pre-emergence, 31 g ai/ha, scale 0-100, read-out: Plant response rating, Blackgrass): 30%
- pest or weed control at 62 g/ha ([3]; Alopecurus myosuroides, pre-emergence, 62 g ai/ha, scale 0-100, read-out: Plant response rating, Blackgrass): 70%
- pest or weed control at 125 g/ha ([3]; Alopecurus myosuroides, pre-emergence, 125 g ai/ha, scale 0-100, read-out: Plant response rating, Blackgrass): 95%
- pest or weed control at 16 g/ha ([4]; Galium, post-emergence, 16 g ai/ha, scale 0-100, read-out: Plant response rating, Galium): 70%
- pest or weed control at 31 g/ha ([4]; Galium, post-emergence, 31 g ai/ha, scale 0 to 100 (0 no effect, 100 complete control), read-out: Plant response rating, Galium): 70%
- pest or weed control at 62 g/ha ([4]; Galium, post-emergence, 62 g ai/ha, scale 0 to 100 (0 no effect, 100 complete control), read-out: Plant response rating, Galium): 75%
- pest or weed control at 125 g/ha ([4]; Galium, post-emergence, 125 g ai/ha, scale 0 to 100 (0 no effect, 100 complete control), read-out: Plant response rating, Galium): 85%
- pest or weed control at 16 g/ha ([5]; Phalaris minor, post-emergence, 16 g ai/ha, scale 0-100, read-out: Plant response rating, Canarygrass): 15%
- pest or weed control at 31 g/ha ([5]; Phalaris minor, post-emergence, 31 g ai/ha, scale 0 to 100 (0 no effect, 100 complete control), read-out: Plant response rating, Canarygrass): 20%
- pest or weed control at 62 g/ha ([5]; Phalaris minor, post-emergence, 62 g ai/ha, scale 0 to 100 (0 no effect, 100 complete control), read-out: Plant response rating, Canarygrass): 25%
- pest or weed control at 125 g/ha ([5]; Phalaris minor, post-emergence, 125 g ai/ha, scale 0 to 100 (0 no effect, 100 complete control), read-out: Plant response rating, Canarygrass): 30%
- Plant response rating, Johnsongrass ([1]; 16 g ai/ha): 65
- Plant response rating, Johnsongrass ([1]; 31 g ai/ha): 70
- Plant response rating, Johnsongrass ([1]; 62 g ai/ha): 100
- Plant response rating, Johnsongrass ([1]; 125 g ai/ha): 100
- Plant response rating, Johnsongrass ([1]; 250 g ai/ha): 100
- pest or weed control at 16 g/ha ([6]; Tripleurospermum inodorum, pre-emergence, 16 g ai/ha, scale 0 (no effect) to 100 (complete control), read-out: Plant response rating, Chamomile): 5%
- pest or weed control at 62 g/ha ([6]; Tripleurospermum inodorum, pre-emergence, 62 g ai/ha, scale 0-100, read-out: Plant response rating, Chamomile): 35%
- pest or weed control at 125 g/ha ([6]; Tripleurospermum inodorum, pre-emergence, 125 g ai/ha, scale 0-100, read-out: Plant response rating, Chamomile): 65%
- pest or weed control at 16 g/ha ([7]; Bromus tectorum, pre-emergence, 16 g ai/ha, scale 0 (no effect) to 100 (complete control), read-out: Plant response rating, Bromegrass, Downy): 0%
- pest or weed control at 31 g/ha ([7]; Bromus tectorum, pre-emergence, 31 g ai/ha, scale 0-100, read-out: Plant response rating, Bromegrass, Downy): 5%
- pest or weed control at 62 g/ha ([7]; Bromus tectorum, pre-emergence, 62 g ai/ha, scale 0-100, read-out: Plant response rating, Bromegrass, Downy): 5%
- pest or weed control at 125 g/ha ([7]; Bromus tectorum, pre-emergence, 125 g ai/ha, scale 0-100, read-out: Plant response rating, Bromegrass, Downy): 35%
- Plant response rating, Mustard, Black ([2]; 16 g ai/ha): 98
- Plant response rating, Mustard, Black ([2]; 31 g ai/ha): 100
- Plant response rating, Mustard, Black ([2]; 62 g ai/ha): 100
- Plant response rating, Mustard, Black ([2]; 125 g ai/ha): 100
- Plant response rating, Mustard, Black ([2]; 250 g ai/ha): 100
- pest or weed control at 16 g/ha ([8]; Fallopia convolvulus, post-emergence, Postemergence, 16 g ai/ha, scale 0 to 100 (0 no effect, 100 complete control), read-out: Plant response rating, Buckwheat, Wild): 65%
- pest or weed control at 31 g/ha ([8]; Fallopia convolvulus, post-emergence, Postemergence, 31 g ai/ha, scale 0 to 100 (0 no effect, 100 complete control), read-out: Plant response rating, Buckwheat, Wild): 85%
- pest or weed control at 62 g/ha ([8]; Fallopia convolvulus, post-emergence, Postemergence, 62 g ai/ha, scale 0 to 100 (0 no effect, 100 complete control), read-out: Plant response rating, Buckwheat, Wild): 100%
- pest or weed control at 125 g/ha ([8]; Fallopia convolvulus, post-emergence, Postemergence, 125 g ai/ha, scale 0 to 100 (0 no effect, 100 complete control), read-out: Plant response rating, Buckwheat, Wild): 100%

SMILES: N#Cc1cccc(Oc2ncc(F)cn2)c1-n1cc(C(F)(F)F)cn1 [Compound 79, 3-[(5-fluoro-2-pyrimidinyl)oxy]-2-[4-(trifluoromethyl)-1H-pyrazol-1-yl]benzonitrile]
- Plant response rating, Johnsongrass ([1]; 16 g ai/ha): 65
- Plant response rating, Johnsongrass ([1]; 31 g ai/ha): 100
- Plant response rating, Johnsongrass ([1]; 62 g ai/ha): 100
- Plant response rating, Johnsongrass ([1]; 125 g ai/ha): 100
- Plant response rating, Johnsongrass ([1]; 250 g ai/ha): 100
- Plant response rating, Mustard, Black ([2]; 16 g ai/ha): 100
- Plant response rating, Mustard, Black ([2]; 31 g ai/ha): 100
- Plant response rating, Mustard, Black ([2]; 62 g ai/ha): 100
- Plant response rating, Mustard, Black ([2]; 125 g ai/ha): 100
- Plant response rating, Mustard, Black ([2]; 250 g ai/ha): 100

SMILES: FCc1cccc(Oc2ncc(Cl)cn2)c1-n1cc(I)cn1 [Compound 245]
- Plant response rating, Blackgrass [3, 9]: 0
- Plant response rating, Blackgrass ([3]; 31 g ai/ha, scale 0-100): 0
- Plant response rating, Blackgrass ([3]; 62 g ai/ha, scale 0-100): 10
- Plant response rating, Blackgrass ([3]; 125 g ai/ha, scale 0-100): 65
- Plant response rating, Galium ([4]; 16 g ai/ha, scale 0-100): 70
- Plant response rating, Galium [4, 10]: 75
- Plant response rating, Galium [4, 11]: 90
- Plant response rating, Galium [4, 12]: 98
- Plant response rating, Canarygrass ([5]; 16 g ai/ha, scale 0-100): 0
- Plant response rating, Canarygrass [5, 10]: 20
- Plant response rating, Canarygrass [5, 11]: 25
- Plant response rating, Canarygrass [5, 12]: 35
- Plant response rating, Chamomile [6, 9]: 25
- Plant response rating, Chamomile ([6]; 31 g ai/ha, scale 0-100): 30
- Plant response rating, Chamomile ([6]; 62 g ai/ha, scale 0-100): 55
- Plant response rating, Chamomile ([6]; 125 g ai/ha, scale 0-100): 100
- Plant response rating, Bromegrass, Downy [7, 9]: 0
- Plant response rating, Bromegrass, Downy ([7]; 31 g ai/ha, scale 0-100): 0
- Plant response rating, Bromegrass, Downy ([7]; 62 g ai/ha, scale 0-100): 35
- Plant response rating, Bromegrass, Downy ([7]; 125 g ai/ha, scale 0-100): 40
- Plant response rating, Buckwheat, Wild ([8]; Postemergence, 62 g ai/ha, scale 0 to 100 (0 no effect, 100 complete control)): 75
- Plant response rating, Buckwheat, Wild ([8]; Postemergence, 31 g ai/ha, scale 0 to 100 (0 no effect, 100 complete control)): 70
- Plant response rating, Buckwheat, Wild ([8]; Postemergence, 125 g ai/ha, scale 0 to 100 (0 no effect, 100 complete control)): 90
- Plant response rating, Buckwheat, Wild ([8]; postemergence, 16 g ai/ha, scale 0 to 100, 0 no effect, 100 complete control): 70
